Columns and labels:
MBT-2 = test: Cell based assay, cell viability (CellTiter-Glo), MBT-2; details: 72 hours, 0 to 2 µM; read-out: cell based assay cell line 1 MBT-2 IC50
Procedure: (§1) Commercially available bladder cancer cell lines were treated with trypsin-EDTA and seeded in each well of a 96 well plate, followed by incubation for 24 hours. After incubation, candidate compounds were added to each well at a final concentration of 0 to 2 µM. The compound-treated cells were further incubated for 72 hours. Cell viability was measured using an ATP detection method (CellTiter-Glo Luminescent Cell Viability Assay, Promega).
(§2) The selectivity of the compounds of the present disclosure to cancer cells was evaluated in the same manner as described in "2. Cell based assay".

KU19-19 = test: Cell based assay, cell viability (CellTiter-Glo), KU19-19; details: Homo sapiens, KU-19-19; 72 hours, 0 to 2 µM; read-out: cell based assay cell line 2 KU19-19 IC50
Procedure: as §1, §2

253J = test: Cell based assay, cell viability (CellTiter-Glo), 253J; details: Homo sapiens; 72 hours, 0 to 2 µM; read-out: cell based assay cell line 3 253J IC50
Procedure: as §1, §2

UM-UC-3 = test: Cell based assay, cell viability (CellTiter-Glo), UM-UC-3; details: Homo sapiens, UMUC3; 72 hours, 0 to 2 µM; read-out: cell based assay cell line 4 UM-UC-3 IC50
Procedure: as §1, §2

| Compound | IC50 (MBT-2) [nM] | IC50 (KU19-19) [nM] | IC50 (253J) [nM] | IC50 (UM-UC-3) [nM] |
| --- | --- | --- | --- | --- |
| CC(=O)c1c([S+]([O-])Cc2ccc(SC(F)(F)F)cc2)[nH]c2c(Br)ccc(Cl)c2c1=O (centres unmarked) [Compound 56, 3-acetyl-8-bromo-5-chloro-2-((4-((trifluoromethyl)thio)benzyl)sulfinyl)quinolin-4(1H)-one] | 1180 | 940 | 1110 | 1250 |
| O=C(c1c([S+]([O-])Cc2ccc(SC(F)(F)F)cc2)[nH]c2c(Br)ccc(Cl)c2c1=O)C1CC1 (centres unmarked) [Compound 101, 8-bromo-5-chloro-3-(cyclopropanecarbonyl)-2-((4-((trifluoromethyl)thio)benzyl)sulfinyl)quinolin-4(1H)-one] | > 2000 | > 2000 | 1820 | 1930 |
| CC(=O)c1c([S+]([O-])Cc2ccc(S(F)(F)(F)(F)F)cc2)[nH]c2c(F)ccc(F)c2c1=O (centres unmarked) [Compound 80, 3-acetyl-5,8-difluoro-2-((4-(pentafluoro-λ6-sulfanyl)benzyl)sulfinyl)quinolin-4(1H)-one] | > 2000 | > 2000 | > 2000 | > 2000 |
| CC(=O)c1c([S+]([O-])Cc2cc(Cl)ccc2Cl)[nH]c2c(Br)ccc(Cl)c2c1=O (centres unmarked) [Compound 44, 3-acetyl-8-bromo-5-chloro-2-((2,5-dichlorobenzyl)sulfinyl)quinolin-4(1H)-one] | 1150 | 1270 | 1240 | 970 |
| CC(=O)c1c([S+]([O-])Cc2ccc(-n3cccn3)nc2)[nH]c2c(Br)ccc(Cl)c2c1=O (centres unmarked) [Compound 99, 2-(((6-(1H-pyrazol-1-yl)pyridin-3-yl)methyl)sulfinyl)-3-acetyl-8-bromo-5-chloroquinolin-4(1H)-one] | 470 | 1120 | 800 | 770 |
| COc1cc(S(F)(F)(F)(F)F)ccc1C[S+]([O-])c1[nH]c2c(Br)ccc(Cl)c2c(=O)c1C(C)=O (centres unmarked) [Compound 75, 3-acetyl-8-bromo-5-chloro-2-((2-methoxy-4-(pentafluoro-λ6-sulfanyl)benzyl)sulfinyl)quinolin-4(1H)-one] | 1050 | 1210 | 860 | 1010 |
| CC(=O)c1c([S+]([O-])Cc2ccc(C(F)(F)F)o2)[nH]c2c(F)ccc(F)c2c1=O (centres unmarked) [Compound 81, 3-acetyl-5,8-difluoro-2-(((5-(trifluoromethyl)furan-2-yl)methyl)sulfinyl)quinolin-4(1H)-one] | > 2000 | > 2000 | > 2000 | > 2000 |
| CC(=O)c1c([S+]([O-])Cc2cc(C)on2)[nH]c2c(Br)ccc(Cl)c2c1=O (centres unmarked) [Compound 51, 3-acetyl-8-bromo-5-chloro-2-(((5-methylisoxazol-3-yl)methyl)sulfinyl)quinolin-4(1H)-one] | 760 | 1260 | 1130 | 630 |
| CC(=O)c1c([S+]([O-])Cc2ccc(C(C)(C)C)cc2)[nH]c2c(Br)ccc(Cl)c2c1=O (centres unmarked) [Compound 60, 3-acetyl-8-bromo-2-((4-(tert-butyl)benzyl)sulfinyl)-5-chloroquinolin-4(1H)-one] | > 2000 | 1560 | 1710 | > 2000 |
| Cc1cc(C[S+]([O-])c2[nH]c3c(Cl)ccc(Cl)c3c(=O)c2C(=O)c2ccccc2)no1 (centres unmarked) [Compound 88, 3-benzoyl-5,8-dichloro-2-(((5-methylisoxazol-3-yl)methyl)sulfinyl)quinolin-4(1H)-one] | > 2000 | > 2000 | > 2000 | > 2000 |
| CC(=O)c1c([S+]([O-])Cc2ccc(N)nc2)[nH]c2c(Br)ccc(Cl)c2c1=O (centres unmarked) [Compound 100, 3-acetyl-2-(((6-aminopyridin-3-yl)methyl)sulfinyl)-8-bromo-5-chloroquinolin-4(1H)-one] | > 2000 | > 2000 | > 2000 | > 2000 |
